Test results: patent US20170150719A1, “FUNGICIDAL PYRAZOLES AND THEIR MIXTURES” (E I DU PONT DE NEMOURS AND COMPANY, priority 2010, published 2017)
Marks after values point to notes of the source that are not given here.

Columns and labels:
Septoria tritici = experiment: Test F: wheat leaf blotch, preventive spray on wheat seedlings, visual disease rating; assay type: in vivo; settings: 100 = 100% disease control; for Test F rating (disease control) / pest or weed control at 200 µg/mL: 0 = no disease control relative to the controls; for Test F rating (% disease control): preventive spray, rating without asterisk; for pest or weed control at 200 µg/mL: Zymoseptoria tritici
Text: (§1) A hyphen (-) indicates no test results.

Alternaria solani = experiment: Test B: tomato early blight, preventive spray on tomato seedlings, visual disease rating; settings: for Test B rating (disease control) / Test B rating (% disease control): tomato early blight, 100 = 100% disease control; for Test B rating (disease control): 0 = no disease control relative to the controls; for Test B rating (% disease control): preventive spray, rating without asterisk; for pest or weed control at 200 µg/mL: Alternaria solani, in Solanum lycopersicum, read-out: Test B rating (disease control)
[1] = system: Puccinia recondita f. sp. tritici; experiment: Test H: wheat leaf rust, preventive spray on wheat seedlings, visual disease rating; settings: 100 = 100% disease control; for Test H rating (disease control) / Test H rating (% disease control): wheat leaf rust; for Test H rating (disease control): sprayed the day before inoculation; for Test H rating (disease control) / pest or weed control at 200 µg/mL: 0 = no disease control; for Test H rating (% disease control): preventive spray, rating without asterisk; for pest or weed control at 200 µg/mL: read-out: Test H rating (disease control), wheat leaf rust, sprayed the day before inoculation
[2] = system: Blumeria graminis f. sp. tritici; experiment: Test I: wheat powdery mildew, preventive spray on wheat seedlings, visual disease rating; settings: for Test I rating (disease control) / Test I rating (% disease control) / pest or weed control at 200 µg/mL: 100 = 100% disease control; for Test I rating (disease control) / pest or weed control at 200 µg/mL: 0 = no disease control relative to the controls; for Test I rating (% disease control): preventive spray, rating without asterisk; for pest or weed control at 200 µg/mL: Blumeria graminis, in Triticum aestivum, read-out: Test I rating (disease control), wheat powdery mildew
Septoria nodorum = experiment: Test E: Septoria glume blotch, preventive spray on wheat seedlings, visual disease rating; settings: 100 = 100% disease control; for Test E rating (disease control): Septoria glume blotch; for Test E rating (disease control) / pest or weed control at 200 µg/mL: 0 = no disease control relative to the controls; for Test E rating (% disease control): Septoria glume blotch on wheat, preventive spray, rating without asterisk; for pest or weed control at 200 µg/mL: Parastagonospora nodorum, in Triticum aestivum, read-out: Test E rating (disease control), Septoria glume blotch
Botrytis cinerea = experiment: Test A: tomato Botrytis, preventive spray on tomato seedlings, visual disease rating; settings: 100 = 100% disease control; for Test A rating (disease control) / Test A rating (% disease control): tomato Botrytis; for Test A rating (disease control) / pest or weed control at 200 µg/mL: 0 = no disease control relative to the controls; for Test A rating (% disease control): preventive spray, 0 = no control relative to controls, rating without asterisk; for pest or weed control at 200 µg/mL: Botrytis cinerea, in Solanum lycopersicum, read-out: Test A rating (disease control), tomato Botrytis
[3] = system: Puccinia recondita f. sp. tritici; experiment: Test G: wheat leaf rust, spray after inoculation (curative) on wheat seedlings, visual disease rating; assay type: in vivo; settings: 100 = 100% disease control; for Test G rating (disease control) / pest or weed control at 200 µg/mL: sprayed after inoculation, 0 = no disease control; for Test G rating (% disease control): spray after inoculation, rating without asterisk
Text: as §1

Row | Compound | Test F rating (disease control) (Septoria tritici) [%] | Test B rating (disease control) (Alternaria solani) [%] | Test H rating (disease control) [1] [%] | Test I rating (disease control) ([2]; wheat powdery mildew) [%] | Test E rating (disease control) (Septoria nodorum) [%] | Test A rating (disease control) (Botrytis cinerea) [%] | Test G rating (disease control) [3] [%] | also measured
1 | COc1cc(F)c(Nc2c(-c3c(F)cccc3F)c(C)nn2C)c(F)c1 [compound 72] | 100 | 99 | 97 | 98 | 0 | 100 | 0 | 
2 | CCOc1cc(F)c(-c2c(C)nn(C)c2Nc2ccc(F)cc2F)c(F)c1 [compound 39] | 100 | 99 | 99 | 100 | 98 | 99 | 0 | 
3 | Cc1nn(C)c(Nc2ccc(F)cc2Cl)c1-c1ccc(F)cc1Br [compound 96] | 100 | 95 | 100 | 100 | 0 | 100 | 94 | 
4 | Cc1nn(C)c(Nc2c(F)cc(Cl)cc2Cl)c1-c1ccc(F)cc1I [compound 222] |  |  |  |  |  |  |  | Test F rating (% disease control) (Septoria tritici): 100%; Test B rating (% disease control) (Alternaria solani): 77%; Test H rating (% disease control) [1]: 90%; Test I rating (% disease control) ([2]; wheat powdery mildew): 96%; Test E rating (% disease control) (Septoria nodorum): 0%; Test A rating (% disease control) (Botrytis cinerea): 98%; Test G rating (% disease control) [3]: 0%
5 | Cc1nn(C)c(Nc2c(F)cc(F)cc2Cl)c1-c1c(F)cccc1F [Compound 86, N-(2-chloro-4,6-difluorophenyl)-4-(2,6-difluorophenyl)-1,3-dimethyl-1H-pyrazol-5-amine] |  |  |  |  |  |  |  | pest or weed control at 200 µg/mL (Septoria tritici): 100%; pest or weed control at 200 µg/mL (Alternaria solani): 99%; pest or weed control at 200 µg/mL [1]: 100%; pest or weed control at 200 µg/mL [2]: 100%; pest or weed control at 200 µg/mL (Septoria nodorum): 90%; pest or weed control at 200 µg/mL (Botrytis cinerea): 100%; pest or weed control at 200 µg/mL [3]: 0%
6 | Cc1nn(C)c(Nc2c(Cl)cc(Cl)cc2Cl)c1-c1ccc(F)cc1Br [compound 174] | 100 | 0 | 99 |  | 0 | 95 | 0 | Test I rating (disease control), value marked * ([2]; wheat powdery mildew, rating marked with asterisk (*), not explained in the text shown): 99* %
7 | CCOc1ccc(-c2c(C)nn(C)c2Nc2c(F)cc(Cl)cc2F)c(Cl)c1 [compound 207] |  |  |  |  |  |  |  | Test F rating (% disease control) (Septoria tritici): 100%; Test B rating (% disease control) (Alternaria solani): 99%; Test H rating (% disease control) [1]: 94%; Test I rating (% disease control) ([2]; wheat powdery mildew): 99%; Test E rating (% disease control) (Septoria nodorum): 86%; Test A rating (% disease control) (Botrytis cinerea): 94%; Test G rating (% disease control) [3]: 0%
8 | COc1ccc(-c2c(C)nn(C)c2Oc2c(F)cc(C#N)cc2F)c(F)c1 [compound 14] | 100 | 100 | 100 | 99 | 99 | 99 | 37 | 
9 | Cc1nn(C)c(Nc2ccc(F)cc2Cl)c1-c1c(Cl)cccc1Cl [compound 109] | 100 | 0 | 97 | 100 | 0 | 100 | 0 | 
10 | Cc1nn(C)c(Nc2ccc(F)cc2F)c1-c1ccc(C#N)cc1Cl [compound 107] | 100 | 80 | 100 | 97 | 73 | 100 | 8 | 
11 | COc1cc(F)c(-c2c(C)nn(C)c2Nc2c(F)cc(F)cc2F)c(F)c1 [Compound 7, 4-(2,6-difluoro-4-methoxyphenyl)-1,3-dimethyl-N-(2,4,6-trifluorophenyl)-1H-pyrazol-5-amine] |  |  |  |  |  |  |  | pest or weed control at 200 µg/mL (Septoria tritici): 94%; pest or weed control at 200 µg/mL (Alternaria solani): 100%; pest or weed control at 200 µg/mL [1]: 97%; pest or weed control at 200 µg/mL [2]: 100%; pest or weed control at 200 µg/mL (Septoria nodorum): 0%; pest or weed control at 200 µg/mL (Botrytis cinerea): 98%; pest or weed control at 200 µg/mL [3]: 9%
12 | Cc1nn(C)c(Nc2ccc(Br)cc2F)c1-c1ccc(F)cc1Br [compound 169] | 100 | 0 | 96 | 99 | 60 | 100 | 23 | 
13 | Cc1nn(C)c(Nc2ccc(Cl)cc2Cl)c1-c1c(Cl)cccc1Cl [compound 105] | 100 | 0 | 96 | 99 | 0 | 99 | 0 | 
14 | Cc1nn(C)c(Nc2c(F)cc(Cl)cc2F)c1-c1ccc(F)cc1Br [Compound 129, 4-(2-bromo-4-fluorophenyl)-N-(4-chloro-2,6-difluorophenyl)-1,3-dimethyl-1H-pyrazol-5-amine] |  |  |  |  |  |  |  | pest or weed control at 200 µg/mL (Septoria tritici): 100%; pest or weed control at 200 µg/mL (Alternaria solani): 97%; pest or weed control at 200 µg/mL [1]: 100%; pest or weed control at 200 µg/mL [2]: 100%; pest or weed control at 200 µg/mL (Septoria nodorum): 95%; pest or weed control at 200 µg/mL (Botrytis cinerea): 100%; pest or weed control at 200 µg/mL [3]: 79%
15 | Cc1nn(C)c(Nc2c(F)cc(F)cc2F)c1-c1c(F)cccc1Cl [compound 56] | 100 | 100 | 97 | 99 | 0 | 98 | 0 | 
16 | COc1cc(F)c(-c2c(C)nn(C)c2C(O)c2ccc(F)cc2F)c(F)c1 (centres unmarked) [compound 62] | 100 | 100 | 99 | 99 | 99 | 100 | 0 | 
17 | Cc1nn(C)c(Oc2c(F)cc(C#N)cc2F)c1-c1ccc(F)cc1Br [Compound 65, 4-[[4-(2-bromo-4-fluorophenyl)-1,3-dimethyl-1H-pyrazol-5-yl]oxy]-3,5-difluorobenzonitrile] |  |  |  |  |  |  |  | pest or weed control at 200 µg/mL (Septoria tritici): 100%; pest or weed control at 200 µg/mL (Alternaria solani): 99%; pest or weed control at 200 µg/mL [1]: 100%; pest or weed control at 200 µg/mL [2]: 100%; pest or weed control at 200 µg/mL (Septoria nodorum): 99%; pest or weed control at 200 µg/mL (Botrytis cinerea): 100%; pest or weed control at 200 µg/mL [3]: 0%
